Values quoted from earlier work, collected in paper PMC3433420 (PLoS ONE, 2012).
Read-outs that look alike come from different tables or passages of the source.

Target: SH2 and PTB domains
Settings: cited from earlier work
Source text: Supplement pone.0044471.s022.xlsx, sheet "Most recent PM interactions" | column: Kd || Supplement pone.0044471.s022.xlsx, sheet "All original PM interactions" | column: Kd

[1] = protein PLCG2-NC, ref Kaushansky et al. Chem and Biol 2008

Substance: DADEpYLIPQQGFd [ErbB1 pY1016, N-terminally rhodamine-labeled 13-mer phosphopeptide]
- Kd (protein ABL2, ref Jones et al. 2006 / Kaushansky et al. Mol Biosys 2008 / Kaushansky et al. Chem and Biol 2008): 280 nM
- Kd (protein BLK, ref Jones et al. 2006 / Kaushansky et al. Mol Biosys 2008 / Kaushansky et al. Chem and Biol 2008): 660 nM
- Kd (protein CRK, ref Jones et al. 2006 / Kaushansky et al. Mol Biosys 2008 / Kaushansky et al. Chem and Biol 2008): 470 nM
- Kd (protein CRKL, ref Jones et al. 2006 / Kaushansky et al. Mol Biosys 2008 / Kaushansky et al. Chem and Biol 2008): 1000 nM
- Kd (protein NCK1, ref Jones et al. 2006 / Kaushansky et al. Mol Biosys 2008 / Kaushansky et al. Chem and Biol 2008): 1000 nM
- Kd (protein NCK2, ref Jones et al. 2006 / Kaushansky et al. Mol Biosys 2008 / Kaushansky et al. Chem and Biol 2008): 2000 nM
- Kd (protein PIK3R1-C, ref Jones et al. 2006 / Kaushansky et al. Mol Biosys 2008 / Kaushansky et al. Chem and Biol 2008): 870 nM
- Kd (protein PIK3R1-N, ref Jones et al. 2006 / Kaushansky et al. Mol Biosys 2008 / Kaushansky et al. Chem and Biol 2008): 650 nM
- Kd (protein PIK3R1-NC, ref Jones et al. 2006 / Kaushansky et al. Mol Biosys 2008 / Kaushansky et al. Chem and Biol 2008): 300 nM
- Kd (protein PIK3R2-N, ref Jones et al. 2006 / Kaushansky et al. Mol Biosys 2008 / Kaushansky et al. Chem and Biol 2008): 430 nM
- Kd (protein PIK3R2-NC, ref Jones et al. 2006 / Kaushansky et al. Mol Biosys 2008 / Kaushansky et al. Chem and Biol 2008): 350 nM
- Kd (protein PIK3R3-C, ref Jones et al. 2006 / Kaushansky et al. Mol Biosys 2008 / Kaushansky et al. Chem and Biol 2008): 190 nM
- Kd (protein PIK3R3-N, ref Jones et al. 2006 / Kaushansky et al. Mol Biosys 2008 / Kaushansky et al. Chem and Biol 2008): 470 nM
- Kd (protein PIK3R3-NC, ref Jones et al. 2006 / Kaushansky et al. Mol Biosys 2008 / Kaushansky et al. Chem and Biol 2008): 200 nM
- Kd (protein PLCG1-C, ref Jones et al. 2006 / Kaushansky et al. Mol Biosys 2008 / Kaushansky et al. Chem and Biol 2008): 2000 nM
- Kd (protein PLCG1-NC, ref Jones et al. 2006 / Kaushansky et al. Mol Biosys 2008 / Kaushansky et al. Chem and Biol 2008): 790 nM
- Kd (protein PLCG2-NC, ref Jones et al. 2006 / Kaushansky et al. Mol Biosys 2008 / Kaushansky et al. Chem and Biol 2008): 2000 nM
- Kd (protein PTPN11-N, ref Jones et al. 2006 / Kaushansky et al. Mol Biosys 2008 / Kaushansky et al. Chem and Biol 2008): 380 nM
- Kd (protein RASA1-N, ref Jones et al. 2006 / Kaushansky et al. Mol Biosys 2008 / Kaushansky et al. Chem and Biol 2008): 770 nM
- Kd (protein RASA1-NC, ref Jones et al. 2006 / Kaushansky et al. Mol Biosys 2008 / Kaushansky et al. Chem and Biol 2008): 1420 nM
- Kd (protein SH2D3A, ref Jones et al. 2006 / Kaushansky et al. Mol Biosys 2008 / Kaushansky et al. Chem and Biol 2008): 2000 nM
- Kd (protein SH2D3C, ref Jones et al. 2006 / Kaushansky et al. Mol Biosys 2008 / Kaushansky et al. Chem and Biol 2008): 2000 nM
- Kd (protein SHB, ref Jones et al. 2006 / Kaushansky et al. Mol Biosys 2008 / Kaushansky et al. Chem and Biol 2008): 1990 nM
- Kd (protein SHC1-PTB, ref Jones et al. 2006 / Kaushansky et al. Mol Biosys 2008 / Kaushansky et al. Chem and Biol 2008): 630 nM
- Kd (protein SHC2-PTB, ref Jones et al. 2006 / Kaushansky et al. Mol Biosys 2008 / Kaushansky et al. Chem and Biol 2008): 660 nM
- Kd (protein SHC3, ref Jones et al. 2006 / Kaushansky et al. Mol Biosys 2008 / Kaushansky et al. Chem and Biol 2008): 220 nM
- Kd (protein SLA, ref Jones et al. 2006 / Kaushansky et al. Mol Biosys 2008 / Kaushansky et al. Chem and Biol 2008): 2000 nM
- Kd (protein SYK-C, ref Jones et al. 2006 / Kaushansky et al. Mol Biosys 2008 / Kaushansky et al. Chem and Biol 2008): 930 nM
- Kd (protein SYK-NC, ref Jones et al. 2006 / Kaushansky et al. Mol Biosys 2008 / Kaushansky et al. Chem and Biol 2008): 530 nM
- Kd (protein TENC1, ref Jones et al. 2006 / Kaushansky et al. Mol Biosys 2008 / Kaushansky et al. Chem and Biol 2008): 2000 nM
- Kd (protein TNS4, ref Jones et al. 2006 / Kaushansky et al. Mol Biosys 2008 / Kaushansky et al. Chem and Biol 2008): 920 nM
- Kd (protein VAV1, ref Jones et al. 2006 / Kaushansky et al. Mol Biosys 2008 / Kaushansky et al. Chem and Biol 2008): 1050 nM
- Kd (protein VAV2, ref Jones et al. 2006 / Kaushansky et al. Mol Biosys 2008 / Kaushansky et al. Chem and Biol 2008): 2000 nM
- Kd (protein VAV3, ref Jones et al. 2006 / Kaushansky et al. Mol Biosys 2008 / Kaushansky et al. Chem and Biol 2008): 2000 nM

Substance: DAEEpYLVPQQGFd [ErbB2 pY1023, N-terminally rhodamine-labeled 13-mer phosphopeptide]
- Kd (protein ABL2, ref Jones et al. 2006 / Kaushansky et al. Chem and Biol 2008): 2000 nM
- Kd (protein BLK, ref Jones et al. 2006 / Kaushansky et al. Chem and Biol 2008): 2000 nM
- Kd (protein CRK, ref Jones et al. 2006 / Kaushansky et al. Chem and Biol 2008): 2000 nM
- Kd (protein CRKL, ref Jones et al. 2006 / Kaushansky et al. Chem and Biol 2008): 2000 nM
- Kd (protein DAPP1, ref Jones et al. 2006 / Kaushansky et al. Chem and Biol 2008): 2000 nM
- Kd (protein FGR, ref Jones et al. 2006 / Kaushansky et al. Chem and Biol 2008): 2000 nM
- Kd (protein ITK, ref Jones et al. 2006 / Kaushansky et al. Chem and Biol 2008): 2000 nM
- Kd (protein LYN, ref Jones et al. 2006 / Kaushansky et al. Chem and Biol 2008): 2000 nM
- Kd (protein NCK2, ref Jones et al. 2006 / Kaushansky et al. Chem and Biol 2008): 2000 nM
- Kd (protein PIK3R1-C, ref Jones et al. 2006 / Kaushansky et al. Chem and Biol 2008): 2000 nM
- Kd (protein PIK3R1-NC, ref Jones et al. 2006 / Kaushansky et al. Chem and Biol 2008): 1640 nM
- Kd (protein PIK3R2-N, ref Jones et al. 2006 / Kaushansky et al. Chem and Biol 2008): 1950 nM
- Kd (protein PIK3R2-NC, ref Jones et al. 2006 / Kaushansky et al. Chem and Biol 2008): 2000 nM
- Kd (protein PIK3R3-N, ref Jones et al. 2006 / Kaushansky et al. Chem and Biol 2008): 1930 nM
- Kd (protein PIK3R3-NC, ref Jones et al. 2006 / Kaushansky et al. Chem and Biol 2008): 530 nM
- Kd (protein PLCG1-C, ref Jones et al. 2006 / Kaushansky et al. Chem and Biol 2008): 1460 nM
- Kd (protein PLCG1-NC, ref Jones et al. 2006 / Kaushansky et al. Chem and Biol 2008): 2000 nM
- Kd (protein PTPN6-C, ref Jones et al. 2006 / Kaushansky et al. Chem and Biol 2008): 2000 nM
- Kd (protein RASA1-N, ref Jones et al. 2006 / Kaushansky et al. Chem and Biol 2008): 2000 nM
- Kd (protein RASA1-NC, ref Jones et al. 2006 / Kaushansky et al. Chem and Biol 2008): 2000 nM
- Kd (protein SH2B2, ref Jones et al. 2006 / Kaushansky et al. Chem and Biol 2008): 2000 nM
- Kd (protein SH2D3A, ref Jones et al. 2006 / Kaushansky et al. Chem and Biol 2008): 2000 nM
- Kd (protein SHC1-PTB, ref Jones et al. 2006 / Kaushansky et al. Chem and Biol 2008): 2000 nM
- Kd (protein SHC2-PTB, ref Jones et al. 2006 / Kaushansky et al. Chem and Biol 2008): 2000 nM
- Kd (protein SHC3, ref Jones et al. 2006 / Kaushansky et al. Chem and Biol 2008): 2000 nM
- Kd (protein SLA2, ref Jones et al. 2006 / Kaushansky et al. Chem and Biol 2008): 2000 nM
- Kd (protein SLA, ref Jones et al. 2006 / Kaushansky et al. Chem and Biol 2008): 2000 nM
- Kd (protein SOCS1, ref Jones et al. 2006 / Kaushansky et al. Chem and Biol 2008): 2000 nM
- Kd (protein SOCS2, ref Jones et al. 2006 / Kaushansky et al. Chem and Biol 2008): 2000 nM
- Kd (protein SRC, ref Jones et al. 2006 / Kaushansky et al. Chem and Biol 2008): 760 nM
- Kd (protein SUPT6H, ref Jones et al. 2006 / Kaushansky et al. Chem and Biol 2008): 910 nM
- Kd (protein SYK-NC, ref Jones et al. 2006 / Kaushansky et al. Chem and Biol 2008): 370 nM
- Kd (protein TEC, ref Jones et al. 2006 / Kaushansky et al. Chem and Biol 2008): 2000 nM
- Kd (protein TENC1, ref Jones et al. 2006 / Kaushansky et al. Chem and Biol 2008): 2000 nM
- Kd (protein VAV1, ref Jones et al. 2006 / Kaushansky et al. Chem and Biol 2008): 2000 nM
- Kd (protein VAV2, ref Jones et al. 2006 / Kaushansky et al. Chem and Biol 2008): 2000 nM
- Kd (protein VAV3, ref Jones et al. 2006 / Kaushansky et al. Chem and Biol 2008): 2000 nM
- Kd (protein YES1, ref Jones et al. 2006 / Kaushansky et al. Chem and Biol 2008): 1170 nM

Substance: DEKEpYNADGGKMd [ErbB4 pY875, N-terminally rhodamine-labeled 13-mer phosphopeptide]
- Kd [1]: 1140 nM

Substance: DETEpYHADGGKVd [ErbB2 pY877, N-terminally rhodamine-labeled 13-mer phosphopeptide]
- Kd (protein BLK, ref Kaushansky et al. Chem and Biol 2008): 720 nM
- Kd (protein PLCG2-N, ref Kaushansky et al. Chem and Biol 2008): 650 nM
- Kd [1]: 1100 nM
- Kd (protein RASA1-NC, ref Kaushansky et al. Chem and Biol 2008): 1400 nM
- Kd (protein YES1, ref Kaushansky et al. Chem and Biol 2008): 1890 nM
